# Several values for one entry are separate records, joined by “and”; a condition that tells them apart may be missing. Equal entries are not always repeated.
# Assay: Blood circulation half-life (ICP-OES of Pt)
# Type: in vivo, mice
# Conditions: for blood circulation half-life t1/2: mice, i.v., 2.25 mg kg-1 Pt
# Text: Scale bar: 100 μm. The occurrence of hepatotoxicity in […]-treated mice could be presumably owing to (1) the large size of […] (~160 nm) that caused a high liver uptake and (2) the fast release of cytotoxic cisplatin from the liver-resided […] by hepatic GSH that led to a high concentration of cisplatin in the liver. One representative experiment out of two is shown. 30 PBS CDDP Pt IV NP sP- Cy Pt 20 10 0 013 619 25 Days Supplementary Figure 34. Monitoring of the body weight of mice with orthotopic HepG2/Luc liver tumors following indicated treatments. […] Values denote mean ± s.d. (n = 4 independent animals). 120 CDDP Pt IV NP s […] 40 0 0 25510 2015 Time (h) Supplementary Figure 35. Examination of the blood circulation half-lives of […], and CDDP. Plots of the relative amount of Pt (%) in the blood after i.v. injection of […], and CDDP (at a dose of 2.25 mg kg-1 Pt) into healthy mice. Data are mean ± s.d. (n = 3 independent animals). […] 0.23 h). […] The residues were then diluted with 5 mL 2% HNO3 and 5% HCl solution, and the concentrations of Pt element were determined by ICP-OES, which were further applied to calculate the contents of Pt element in the blood. The plot of the percentage of Pt element remained in the blood versus injection time to yield the pharmacokinetic time. Urine and Faeces analysis. […] Urine and faeces were collected at 2 (for 0-2 h), 4 (for 2-4 h), 8 (for 4- 8 h) and 12 h (for […]), which were diluted in methanol and centrifuged at 3,600 × g for 10 min, followed by filtering via a 0.22 μm syringe filter. The solutions were analyzed by HPLC (660 nm detection) to characterize all the mCy-containing compounds. Using the established standard curves for […] Cy-COOH, the amount of each compound in the urine and faeces could be calculated, which were further applied to determine the percentage of them in the urine and faeces. The data were summarized in Supplementary Tables 5-8. […] Urine and faeces were collected and weighed. The urine and faeces were digested with concentrated HNO3 (65~70%) and HCl (36~38%) at 90 °C for 24 h. The solution was diluted to 5 mL 2% HNO3 and 5% HCl solution, and the concentration of Pt element was measured by ICP-OES, which was further applied to calculate the percentage of Pt in corresponding urine and faeces. The data were summarized in Supplementary Tables 9 and 10. 47
SMILES,"Relative Pt amount in blood (Time 0 h, individual mice)","Relative Pt amount in blood (Time 0 h, mean of 3 mice)","Relative Pt amount in blood (Time 0.5 h, individual mice)","Relative Pt amount in blood (Time 0.5 h, mean of 3 mice)","Relative Pt amount in blood (Time 1 h, individual mice)","Relative Pt amount in blood (Time 1 h, mean of 3 mice)","Relative Pt amount in blood (Time 2 h, individual mice)","Relative Pt amount in blood (Time 2 h, mean of 3 mice)","Relative Pt amount in blood (Time 4 h, individual mice)","Relative Pt amount in blood (Time 4 h, mean of 3 mice)","Relative Pt amount in blood (Time 8 h, individual mice)","Relative Pt amount in blood (Time 8 h, mean of 3 mice)","Relative Pt amount in blood (Time 12 h, individual mice)","Relative Pt amount in blood (Time 12 h, mean of 3 mice)","Relative Pt amount in blood (Time 24 h, individual mice)","Relative Pt amount in blood (Time 24 h, mean of 3 mice)",blood circulation half-life t1/2 [min]
"[NH2][Pt]([NH2])([Cl])[Cl] [CDDP, cisplatin]",93.8305 and 92.1406 and 114.029,100,57.2961 and 52.6288 and 39.5118,49.8122,22.492 and 12.6341 and 19.9651,18.3637,7.725 and 8.771 and 6.76,7.752,2.808 and 1.569 and 2.181,2.186,1.408 and 0.5955 and 1.521,1.175,1.746 and 1.28 and 0.8611,1.2956,1.634 and 0.8852 and 0.6518,1.057,43.8 ± 2.4
CC1(C)C(/C=C/C2=C3Oc4cc(OP(=O)(O)O)c(Cl)cc4C=C3CCC2)=[N+](CCCNC(=O)[C@@H](Cc2ccccc2)NC(=O)[C@@H](Cc2ccccc2)NC(=O)CCC(=O)[O][Pt]([NH2])([NH2])([OH])([Cl])[Cl])c2ccccc21 [P-CyPt],89.0517 and 110.783 and 100.165,100,75.3589 and 72.0355 and 86.1448,77.8464,48.6558 and 63.4564 and 58.4934,56.8685,21.7134 and 35.2733 and 24.195,27.0606,12.3988 and 8.818 and 6.257,9.158,7.923 and 5.247 and 4.422,5.864,4.1743 and 2.189 and 3.164,3.176,1.657 and 1.56 and 1.79,1.669,32.4 ± 3.6

# Source: PMC9925730, “Controlled sequential in situ self-assembly and disassembly of a fluorogenic cisplatin prodrug for cancer theranostics” (Nature Communications, 2023)
